In assay [1] the target is ROCK1 (Homo sapiens (Human), UniProt Q13464). As to the kind of experiment: ROCK assay (Caliper LABCHIP peptide phosphorylation), ROCK1.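 Further: Read-out is separation of phosphorylated from unphosphorylated peptide, with kinase activity inhibition computed at every concentration of a dose-response series.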 It is filed as biochemical. To be noted: 5 μM ATP, 1.5 μM peptide substrate.
The target of assay [2] is ROCK2 (Homo sapiens (Human), UniProt O75116). Briefly: ROCK assay (Caliper LABCHIP peptide phosphorylation), ROCK2.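 Further: reaction stopped with EDTA, then phosphorylated and unphosphorylated peptide resolved by microfluidic electrophoresis, kinase inhibition computed at each compound concentration in dose-response series, DMSO under 2%.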 It is filed as biochemical. To be noted: 5 μM ATP, 1.5 μM peptide substrate.
Chain of ROCK2 (O75116 whole entry, species assumed): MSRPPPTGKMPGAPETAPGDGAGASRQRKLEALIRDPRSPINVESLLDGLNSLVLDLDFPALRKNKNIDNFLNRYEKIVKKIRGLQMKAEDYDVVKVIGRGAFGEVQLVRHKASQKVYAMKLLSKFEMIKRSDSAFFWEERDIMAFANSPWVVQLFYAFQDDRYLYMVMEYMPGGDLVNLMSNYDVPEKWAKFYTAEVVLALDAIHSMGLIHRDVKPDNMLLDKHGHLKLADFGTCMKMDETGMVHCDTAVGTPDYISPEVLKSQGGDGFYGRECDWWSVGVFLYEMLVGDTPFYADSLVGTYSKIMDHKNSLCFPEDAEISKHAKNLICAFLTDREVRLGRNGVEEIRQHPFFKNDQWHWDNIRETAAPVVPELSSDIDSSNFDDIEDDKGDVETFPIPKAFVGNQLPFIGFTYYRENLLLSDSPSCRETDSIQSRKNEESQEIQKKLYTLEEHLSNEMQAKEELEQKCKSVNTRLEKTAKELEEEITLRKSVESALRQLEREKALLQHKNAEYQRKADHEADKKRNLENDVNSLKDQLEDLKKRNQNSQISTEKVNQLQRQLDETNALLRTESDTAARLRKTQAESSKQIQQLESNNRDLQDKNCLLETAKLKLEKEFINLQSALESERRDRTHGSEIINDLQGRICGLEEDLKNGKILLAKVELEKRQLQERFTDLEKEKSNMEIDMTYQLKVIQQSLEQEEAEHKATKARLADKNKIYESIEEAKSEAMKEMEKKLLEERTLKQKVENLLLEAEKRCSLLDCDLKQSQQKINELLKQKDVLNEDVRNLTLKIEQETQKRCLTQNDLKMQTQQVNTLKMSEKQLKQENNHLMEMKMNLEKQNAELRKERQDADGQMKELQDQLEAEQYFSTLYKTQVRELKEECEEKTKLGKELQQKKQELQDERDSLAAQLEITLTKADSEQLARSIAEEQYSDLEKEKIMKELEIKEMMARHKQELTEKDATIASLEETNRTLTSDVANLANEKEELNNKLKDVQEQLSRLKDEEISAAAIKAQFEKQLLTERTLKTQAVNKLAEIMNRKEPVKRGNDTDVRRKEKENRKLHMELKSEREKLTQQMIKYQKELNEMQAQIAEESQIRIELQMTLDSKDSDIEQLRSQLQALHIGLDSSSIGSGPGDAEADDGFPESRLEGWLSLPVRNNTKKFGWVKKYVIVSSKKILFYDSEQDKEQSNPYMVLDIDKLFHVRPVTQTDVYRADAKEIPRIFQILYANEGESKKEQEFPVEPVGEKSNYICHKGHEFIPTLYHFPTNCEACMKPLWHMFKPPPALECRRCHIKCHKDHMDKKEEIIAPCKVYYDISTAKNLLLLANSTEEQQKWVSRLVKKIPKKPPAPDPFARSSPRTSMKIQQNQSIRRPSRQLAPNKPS

Chain of ROCK1 (Q13464 whole entry, species assumed): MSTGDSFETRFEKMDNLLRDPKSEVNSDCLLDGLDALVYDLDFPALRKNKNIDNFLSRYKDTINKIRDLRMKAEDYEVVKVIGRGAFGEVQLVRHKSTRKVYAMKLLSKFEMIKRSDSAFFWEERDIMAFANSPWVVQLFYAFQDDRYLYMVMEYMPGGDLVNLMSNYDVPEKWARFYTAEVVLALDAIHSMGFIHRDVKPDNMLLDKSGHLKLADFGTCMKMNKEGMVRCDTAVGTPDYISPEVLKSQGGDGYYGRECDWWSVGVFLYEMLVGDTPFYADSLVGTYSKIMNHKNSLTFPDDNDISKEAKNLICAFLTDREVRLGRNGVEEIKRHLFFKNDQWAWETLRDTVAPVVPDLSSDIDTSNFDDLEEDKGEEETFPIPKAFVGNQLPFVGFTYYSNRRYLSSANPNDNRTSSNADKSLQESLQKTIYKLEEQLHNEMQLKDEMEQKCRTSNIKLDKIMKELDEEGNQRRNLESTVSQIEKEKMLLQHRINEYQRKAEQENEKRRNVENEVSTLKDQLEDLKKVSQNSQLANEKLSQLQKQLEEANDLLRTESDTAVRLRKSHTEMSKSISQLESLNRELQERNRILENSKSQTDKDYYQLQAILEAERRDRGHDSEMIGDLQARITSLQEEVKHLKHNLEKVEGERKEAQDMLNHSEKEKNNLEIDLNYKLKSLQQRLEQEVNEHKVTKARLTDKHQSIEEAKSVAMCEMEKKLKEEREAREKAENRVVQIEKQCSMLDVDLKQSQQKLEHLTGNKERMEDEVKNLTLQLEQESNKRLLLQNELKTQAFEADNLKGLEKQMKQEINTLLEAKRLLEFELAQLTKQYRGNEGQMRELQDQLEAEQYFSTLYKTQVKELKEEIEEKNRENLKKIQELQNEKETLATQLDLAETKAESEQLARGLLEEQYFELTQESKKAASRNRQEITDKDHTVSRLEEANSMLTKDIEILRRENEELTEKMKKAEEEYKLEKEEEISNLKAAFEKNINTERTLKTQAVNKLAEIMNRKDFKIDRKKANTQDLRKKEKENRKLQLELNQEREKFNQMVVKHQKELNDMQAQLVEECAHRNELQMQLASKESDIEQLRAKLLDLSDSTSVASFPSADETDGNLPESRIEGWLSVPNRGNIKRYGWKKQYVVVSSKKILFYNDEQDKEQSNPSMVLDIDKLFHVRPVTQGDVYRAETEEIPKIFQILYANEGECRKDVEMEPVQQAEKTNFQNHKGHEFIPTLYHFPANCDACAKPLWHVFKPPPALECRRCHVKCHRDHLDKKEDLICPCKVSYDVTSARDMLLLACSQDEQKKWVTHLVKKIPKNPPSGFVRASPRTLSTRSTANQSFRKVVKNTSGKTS

Turning to `COc1cc(C(=O)NCc2cccc(OC(F)(F)F)c2)ccc1-c1cn[nH]c1` [Example 28, 3-methoxy-4-(1H-pyrazol-4-yl)-N-(3-(trifluoro-methoxy)benzyl) benzamide], the IC50 in assay [1] was 1.71 µM; in assay [2], 0.0409 µM.

For the compound `COc1cc(C(=O)N[C@H](CNC2CC2)c2c(F)cccc2F)ccc1-c1cn[nH]c1` [Example 266, N-[(1S)-2-(Cyclopropylamino)-1-(2,6-difluorophenyl)ethyl]-3-methoxy-4-(1H-pyrazol-4-yl)benzamide], the IC50 in assay [1] worked out at 0.00462 µM; in assay [2] it was 0.00453 µM.

Consider `CCC(O)c1cc(C(=O)N[C@H](C)c2ccccc2)ccc1-c1cn[nH]c1` (stereo partly drawn) [Example 284, 3-(1-hydroxypropyl)-N-[(1R)-1-phenylethyl]-4-(1H-pyrazol-4-yl)benzamide], for which the IC50 in assay [1] is 0.842 µM; in assay [2] it was 0.183 µM.

As for `CC(O)c1cc(C(=O)N[C@H](C)c2ccccc2F)ccc1-c1cn[nH]c1` (stereo partly drawn) [Example 283, N-[(1R)-1-(2-fluorophenyl)ethyl]-3-(1-hydroxyethyl)-4-(1H-pyrazol-4-yl)benzamide], the half-maximal inhibitory concentration (IC50) in assay [1] worked out at 0.0506 µM; in assay [2], 0.00543 µM.

For the compound `COc1cc(C(=O)NCc2cccc(N(C)C)c2)ccc1-c1cn[nH]c1` [Example 95, N-{[3-(dimethylamino)phenyl]methyl}-3-methoxy-4-(1H-pyrazol-4-yl)benzamide], the IC50 was 0.371 µM in assay [1] and 0.0476 µM in assay [2].

Regarding `C[C@@H](NC(=O)c1ccc(-c2cn[nH]c2)c(O)c1)c1ccc(F)cc1` [Example 183, N-[(1R)-1-(4-fluorophenyl)ethyl]-3-hydroxy-4-(1H-pyrazol-4-yl)benzamide], the IC50 in assay [1] worked out at 0.00222 µM; in assay [2] it was 0.00768 µM.

On to `COc1cc(C(=O)NCc2cccc(C(=O)NCC(C)(C)O)c2)ccc1-c1cn[nH]c1` [Example 234, N-({3-[(2-hydroxy-2-methylpropyl)carbamoyl]phenyl}methyl)-3-methoxy-4-(1H-pyrazol-4-yl)benzamide], for which the values for the IC50 in assay [1] and in assay [2] were 0.00324 µM and 0.00046 µM, respectively.

Consider `COc1cc(C(=O)NC[C@@H](O)c2ccccc2)ccc1-c1cn[nH]c1` [Example 123, N-[(2S)-2-hydroxy-2-phenylethyl]-3-methoxy-4-(1H-pyrazol-4-yl)benzamide], for which the IC50 in assay [1] worked out at 0.0841 µM; in assay [2], 0.0416 µM.

Regarding `COc1cc(C(=O)NCCc2ccccc2Cl)ccc1-c1cn[nH]c1` [Example 35, N-(2-chloro-phenethyl)-3-methoxy-4-(1H-pyrazol-4-yl)benzamide], the figures for the IC50 in assay [1] and in assay [2] were 0.0165 µM and 0.0066 µM, respectively.

As to `COc1cc(C(=O)NCc2ccc(Cl)cc2F)ccc1-c1cn[nH]c1` [Example 99, N-[(4-chloro-2-fluorophenyl)methyl]-3-methoxy-4-(1H-pyrazol-4-yl)benzamide], the IC50 is 0.0158 µM in assay [1] and 0.00136 µM in assay [2].

As for `COc1cc(-c2cn[nH]c2)ccc1C(=O)NCc1cccc(S(N)(=O)=O)c1` [Example 230, 2-methoxy-4-(1H-pyrazol-4-yl)-N-[(3-sulfamoyl-phenyl)methyl] benzamide], the IC50 was 0.0112 µM in assay [1] and 0.00186 µM in assay [2].

As to `CC(O)c1cc(C(=O)N[C@H](C)c2c(F)cccc2F)ccc1-c1cn[nH]c1` (stereo partly drawn) [Example 293, N-[(1R)-1-(2,6-difluorophenyl)ethyl]-3-(1-hydroxyethyl)-4-(1H-pyrazol-4-yl)benzamide], the IC50 came to 0.0982 µM in assay [1] and 0.0162 µM in assay [2].

Turning to `COc1cc(C(=O)NC(Cc2ccccc2)C(C)=O)ccc1-c1cn[nH]c1` (stereo not shown) [Example 187, 3-methoxy-N-(3-oxo-1-phenylbutan-2-yl)-4-(1H-pyrazol-4-yl)benzamide], the values for the IC50 in assay [1] and in assay [2] were 0.023 µM and 0.014 µM, respectively.

Regarding `Cc1n[nH]cc1-c1cc(OCCN(C)C)c(C(=O)N[C@H](C)c2ccccc2)cc1F` [Example 309, 2-[2-(dimethylamino)ethoxy]-5-fluoro-4-(3-methyl-1H-pyrazol-4-yl)-N-[(1R)-1-phenylethyl]benzamide], the IC50 is greater than 2 µM in assay [1] and 0.771 µM in assay [2].

Regarding `COc1cc(C(=O)NCc2ccc3c(c2)OCO3)ccc1-c1cn[nH]c1` [Example 38, N-(benzo[d] [1,3]dioxol-5-ylmethyl)-3-methoxy-4-(1H-pyrazol-4-yl)benzamide], the IC50 is 0.0348 µM in assay [1] and 0.0142 µM in assay [2].

For `CCOc1cc(C(=O)N[C@H](CO)c2c(F)cccc2F)ccc1-c1cn[nH]c1` [Example 195, N-[(1S)-1-(2,6-difluorophenyl)-2-hydroxyethyl]-3-ethoxy-4-(1H-pyrazol-4-yl)benzamide], the IC50 stood at 0.0827 µM in assay [1] and 0.016 µM in assay [2].

Consider `COc1cc(C(=O)NC(CN2CCN(C)CC2)c2ccccc2)ccc1-c1cn[nH]c1` (stereo not shown) [Example 13, 3-methoxy-N-(2-(4-methylpiperazin-1-yl)-1-phenylethyl)-4-(1H-pyrazol-4-yl)benzamide], for which the IC50 in assay [1] is 0.147 µM; in assay [2], 0.0771 µM.

As to `COc1cc(C(=O)NC[C@@H](C)c2ccccc2)ccc1-c1cn[nH]c1` [Example 129, 3-methoxy-N-[(2S)-2-phenylpropyl]-4-(1H-pyrazol-4-yl)benzamide], the IC50 in assay [1] was 0.034 µM; in assay [2] it was 0.0331 µM.

As to `COc1cc(C(=O)N[C@H](C)c2ccc3ccccc3c2)ccc1-c1cn[nH]c1` [Example 74, (R)-3-methoxy-N-(1-(naphthalen-2-yl)ethyl)-4-(1H-pyrazol-4-yl)benzamide], the IC50 was found to be 0.0363 µM in assay [1] and 0.00918 µM in assay [2].

`COC[C@@H](NC(=O)c1ccc(-c2cn[nH]c2)c(OC)c1)c1ccccc1` [Example 157, 3-methoxy-N-[(1S)-2-methoxy-1-phenylethyl]-4-(1H-pyrazol-4-yl)benzamide]: the IC50 in assay [1] stood at 0.0103 µM; in assay [2], 0.00394 µM.

Regarding `COc1cc(C(=O)NCc2cc(F)cc(F)c2F)ccc1-c1cn[nH]c1` [Example 91, 3-methoxy-4-(1H-pyrazol-4-yl)-N-[(2,3,5-trifluorophenyl)methyl] benzamide], the results for the IC50 in assay [1] and in assay [2] were 0.0385 µM and 0.00766 µM, respectively.

As for `COc1cc(C(=O)NCc2cccc(N3CCCC3)c2)ccc1-c1cn[nH]c1` [Example 87, 3-methoxy-4-(1H-pyrazol-4-yl)-N-{[3-(pyrrolidin-1-yl)phenyl]methyl} benzamide], the concentration for half-maximal inhibition (IC50) in assay [1] was 0.724 µM; in assay [2], 0.13 µM.

For the compound `COc1cc(-c2cn[nH]c2)ccc1C(=O)NC(c1ccccc1F)C(C)(C)O` (stereo not shown) [Example 218, N-[1-(2-fluorophenyl)-2-hydroxy-2-methylpropyl]-2-methoxy-4-(1H-pyrazol-4-yl)benzamide], the IC50 in assay [1] was found to be 0.0247 µM; in assay [2], 0.00652 µM.

With `COc1cc(C(=O)NCCc2ccccc2)ccc1-c1cn[nH]c1` [Example 36, 3-methoxy-N-phenethyl-4-(1H-pyrazol-4-yl)benzamide], the IC50 in assay [1] amounted to 0.0281 µM; in assay [2], 0.0105 µM.

`COc1cc(C(=O)N[C@@H](CO)Cc2ccccc2)ccc1-c1cn[nH]c1` [Example 133, N-[(2R)-1-hydroxy-3-phenylpropan-2-yl]-3-methoxy-4-(1H-pyrazol-4-yl)benzamide]: the results for the IC50 in assay [1] and in assay [2] were 0.0779 µM and 0.034 µM, respectively.

For the compound `COc1cc(C(=O)NCc2ccccn2)ccc1-c1cn[nH]c1` [Example 15, 3-methoxy-4-(1H-pyrazol-4-yl)-N-(pyridin-2-ylmethyl) benzamide], the results for the IC50 in assay [1] and in assay [2] were 0.184 µM and 0.0604 µM, respectively.

The term IC50 denotes the concentration at which inhibition is half-maximal.

The record behind these values is patent US9458110B2, “Phenylpyrazole derivatives as potent ROCK1 and ROCK2 inhibitors” (BRISTOL-MYERS SQUIBB COMPANY, priority 2013, dated 2016).
